# Results as given in patent US4082849A, “Halogenated N-(3,5-dihalophenyl)cyclopropanedicarboximides” (priority 1975, dated 1978).
# Where two headings read alike, the source gives them in different places.
# How the values were obtained:
# [1] = system: Glomerella cingulata
# Procedure: Test for Glomerella Cingulata controlling effect on grape
# An aqueous dilution of the test compound in the form of a wettable powder preparation was applied to berries of grape at a rate of 20 ml per branch. After one day, Glomerella cingulata was inoculated on the surface of the berries immediately after injuring the inoculation site. Three days after inoculation, disease assessment was made. Percentage of control was calculated from the diameter of diseased area according to the following equation: [formula]
# [2] = system: Giberella fujikuroi; assay: Anti-fungal spectrum, agar dilution method; type: cell-based; conditions: read-out: growth inhibiting effect
# [3] = system: Sclerotinia sclerotiorum; assay: Test for Sclerotinia sclerotiorum controlling effect on cucumbers; type: in vivo; conditions: 100 ppm
# Procedure: After one day, Sclerotinia sclerotiorum was inoculated on the surface of the leaf, and the disease severity was observed three days thereafter. The degree of the severity was determined in the following manner. The rate of diseased area on the leaf was measured and classified in one of the six infectious indexes (0, 1, 2, 3, 4, 5) according to the undermentioned criteria. The number of leaves corresponding to each infectious index ([NT]5) was determined, and degree of severity was calculated according to the undermentioned equation: […]
# [4] = system: Colletotrichum lagenarium; assay: Anti-fungal spectrum, agar dilution method; type: cell-based; conditions: Colletotrichum orbiculare, PSA plate, 28° C, read-out: growth inhibiting effect
# [5] = system: Fusarium oxysporum f. lycopersici; assay: Anti-fungal spectrum, agar dilution method; type: cell-based; conditions: PSA plate, 28° C, read-out: growth inhibiting effect
# [6] = system: Glomerella cingulata; assay: Anti-fungal spectrum, agar dilution method; type: cell-based; conditions: Colletotrichum gloeosporioides, PSA plate, 28° C, read-out: growth inhibiting effect
# [7] = system: Chaetomium globosum ATCC 6205; assay: Anti-fungal spectrum, agar dilution method; type: cell-based; conditions: Chaetomium globosum ATCC 6205, 50 ppm, PSA plate, 28° C
# [8] = system: Verticillium albo-atrum; assay: Anti-fungal spectrum, agar dilution method; type: cell-based; conditions: PSA plate, 28° C, read-out: growth inhibiting effect
# [9] = system: Rhizoctonia solani
# Procedure: Test for Rhizoctonia solani controlling effect on cucumber
# Farm soil was charged into pots of 9 cm in diameter and a soil (10 ml) infected with Rhizoctonia solani was dispersed over the surface of said soil. Each of the test compounds in the form of emulsifiable concentrates was diluted with water to a given concentration, and the dilution was applied into each pot in a proportion of 20 ml per pot. After 2 hours, 10 seeds of cucumber were sowed therein. 5 Days thereafter, the infectious state of the grown seedlings was observed, and the percentage of stand was calculated according to the following equation: [formula]
# [10] = system: Aspergillus niger ATCC 6275; assay: Anti-fungal spectrum, agar dilution method; type: cell-based; conditions: Aspergillus niger ATCC 6275, 50 ppm, PSA plate, 28° C
# [11] = system: Rhizopus nigricans; assay: Anti-fungal spectrum, agar dilution method; type: cell-based; conditions: Rhizopus stolonifer, PSA plate, 28° C, read-out: growth inhibiting effect
# [12] = system: Pyricularia oryzae; assay: microbe, parasite or virus in culture; type: cell-based; conditions: read-out: growth inhibiting effect
# [13] = system: Phytophthora infestans; assay: microbe, parasite or virus in culture; type: cell-based; conditions: read-out: growth inhibiting effect
# [14] = system: Rhizoctonia solani; assay: Anti-fungal spectrum, agar dilution method; type: cell-based; conditions: PSA plate, 28° C, read-out: growth inhibiting effect
# [15] = system: Corticium rolfsii; assay: Anti-fungal spectrum, agar dilution method; type: cell-based; conditions: Agroathelia rolfsii, PSA plate, 28° C, read-out: growth inhibiting effect
# [16] = system: Botrytis cinerea; assay: Anti-fungal spectrum, agar dilution method; type: cell-based; conditions: PSA plate, 28° C, read-out: growth inhibiting effect
# [17] = system: Pellicularia sasakii; assay: Anti-fungal spectrum, agar dilution method; type: cell-based; conditions: read-out: growth inhibiting effect
# [18] = system: Sclerotinia sclerotiorum; assay: Anti-fungal spectrum, agar dilution method; type: cell-based; conditions: PSA plate, 28° C, read-out: growth inhibiting effect
# [19] = system: Botrytis cinerea; assay: Test for Botrytis cinerea controlling effect on cucumbers; type: in vivo
# Procedure: After one day, agar discs (diameter: 5 mm) with Botrytis cinerea were put on the leaves for inoculation. Three days after, the disease severity was observed, and the disease-controlling effect was estimated. Percentage of control was determined by the following procedure. The rate of diseased area on the tested leaf was measured and classified in one of the six infectious indexes (0, 1, 2, 3, 4, 5) according to the undermentioned criteria. The number of leaves corresponding to each infectious index ([NT]5) was determined, and percentage of control was calculated according to the undermentioned equation: […]
# [20] = Giberella fujikuroi, 50 ppm, PSA plate, 28° C
# [21] = Pellicularia sasakii, 50 ppm, PSA plate, 28° C
Compound,Percentage of control ([1]; 250 ppm of ingredient),Degree of severity [3],inhibition at 50 ppm [4],inhibition at 50 ppm [5],inhibition at 50 ppm [6],growth inhibiting effect [7],inhibition at 50 ppm [8],Percentage of stand ([9]; 250 ppm),Percentage of stand ([9]; 500 ppm),growth inhibiting effect [10],inhibition at 50 ppm [11],inhibition at 50 ppm [12],inhibition at 50 ppm [13],inhibition at 50 ppm [14],inhibition at 50 ppm [15],inhibition at 50 ppm [16],inhibition at 50 ppm [18],Percentage of control ([19]; 50 ppm),Percentage of control ([19]; 200 ppm),also measured
"CC12CC1(Cl)C(=O)N(c1cc(Cl)cc(Cl)c1)C2=O (stereo not drawn) [Compound 1, N-(3,5-dichlorophenyl)-α-chloro-β-methylcyclopropanedicarboximide]",100%,100%,100%,100%,100%,A (no growth),100%,100%,100%,A (no growth),100%,90%,100%,100%,100%,100%,100%,–,–,"inhibition at 50 ppm [2, 20]: 100%; inhibition at 50 ppm [17, 21]: 100%"
O=C1C2CC2(Cl)C(=O)N1c1cc(Cl)cc(Cl)c1 (stereo not drawn) [Compound 2],100%,100%,–,–,–,–,–,100%,100%,–,–,–,–,–,–,–,–,100%,100%,–
"CC12CC1(Cl)C(=O)N(c1cc(Br)cc(Br)c1)C2=O (stereo not drawn) [Compound 3, N-(3,5-dibromophenyl)-α-chloro-β-methylcyclopropanedicarboximide]",78.5%,94%,90%,100%,100%,A (no growth),100%,–,–,A (no growth),90%,90%,100%,100%,100%,100%,100%,92%,100%,"inhibition at 50 ppm [2, 20]: 100%; inhibition at 50 ppm [17, 21]: 100%"
CC1C2C(=O)N(c3cc(Cl)cc(Cl)c3)C(=O)C12Cl (stereo not drawn) [Compound 4],–,100%,–,–,–,–,–,96.7%,100%,–,–,–,–,–,–,–,–,100%,100%,–
CC12CC1(Br)C(=O)N(c1cc(Cl)cc(Cl)c1)C2=O (stereo not drawn) [Compound 5],–,100%,–,–,–,–,–,–,–,–,–,–,–,–,–,–,–,95%,100%,–
"CCCCNC(=O)n1c(NC(=O)OC)nc2ccccc21 [Methyl-1-(butylcarbamoyl)-2-benzimidazole carbamate, reference compound]",–,35%,–,–,–,–,–,–,–,–,–,–,–,–,–,–,–,90%,100%,–
"O=[N+]([O-])c1c(Cl)c(Cl)c(Cl)c(Cl)c1Cl [PCNB, reference compound]",–,–,–,–,–,–,–,93.4%,–,–,–,–,–,–,–,–,–,–,–,–
CC12CC1(C)C(=O)N(c1cc(Cl)cc(Cl)c1)C2=O (stereo not drawn) [reference compound],6.5%,–,0%,70%,30%,E (5 % inhibition),5%,0%,21.3%,E (5 % inhibition),0%,0%,0%,90%,0%,100%,100%,–,–,inhibition at 50 ppm [2]: 0%; inhibition at 50 ppm [17]: 100%
Mancozeb [reference compound],–,–,–,–,–,–,–,–,–,–,–,–,–,–,–,–,–,–,–,Percentage of control ([1]; 140 ppm of ingredient): 65.0%
